From patent US11249100B2, “Modular robotic systems for delivering fluid to microfluidic devices” (Worcester Polytechnic Institute, priority 2018, dated 2022)
“Also recorded” adds a separate entry of the source.

Tests used:
AWA chemosensory neurons [1] = test: Automated solvent screen: optogenetically (Chrimson) evoked GCaMP calcium responses in living nematodes; type: in vivo, C. elegans; conditions: for effect on peak fluorescent responses to Chrimson-induced activation: <1 min exposure, compared to prior buffer control, 20 young adult animals; for persistence of suppression after returning to buffer fluid: alternating buffer control wells after solvent wells
Description: The C. elegans strain NZ1091 was integrated by irradiation and backcrossed at least 10×. Animals were grown and maintained at 20° C. on NGM plates with OP50 E. coli bacteria. At least 12 hrs prior to experimentation, L4 stage C. elegans were picked and transferred to 50 μM All Trans Retinal (ATR) in OP50 E. coli spotted onto an unseeded NGM plate. For the dose response experiment, C. elegans were selected as L4s the day before and tested as young adults the next day.
All solvents were prepared in Eppendorf tubes at 1% and 5% v/v concentrations to 1 mL in paralysis buffer (S. Basal buffer without cholesterol containing the acetylcholine agonist 1 mM (−)-tetramisole hydrochloride) and vortexed to mix for 30 s-1 min. Solvent dilutions were transferred to a 96 deep well plate (700µL/well). Alternating control wells were filled with 100 ng/mL fluorescein in paralysis buffer to visualize alternating solution delivery. Animals were exposed to paralysis buffer flow for ˜1-2 hrs prior to solvent delivery to keep animals stationary during recording. The 96 well plate was loaded with solvent solutions by hand the hour before recording and sealed with adhesive film (Glad® Press-n-Seal).
Methods followed those described previously. About 20-30 animals co-expressing GCaMP and Chrimson in the AWA chemosensory neuron pair were loaded into a modified high-throughput microfluidic imaging device optimized for 4× magnification with only the inlet, back pressure, worm loading, and outlet port(s) punched. Optical configurations were customized using an ASI RAMM frame and commercially available components for low-magnification wide-filed GCaMP excitation (4×/0.28 NA), compatible with Chrimson excitation, and high-resolution (1024×1024) 10 fps image acquisition. In addition to the optical set up described above, a 617 nm Mightex LED was mounted beneath the RAMM stage with an additional cube housing a 590 LP excitation dichroic to pass uniform Chrimson activation across the entire field of view. At each inlet well position, animals were exposed to solution for <1 min total, during which a 30 s delay was programmed to sufficiently fill the tubing after each well transfer for serially delivered solutions. Then, an immediate acquisition of 15 s (10 frames/s, 10 ms blue light pulse, 10 ms delay, 2×2 binning) began with a 617 nm light presence for 5 s (from 2.5 s to 7.5 s). Custom scripts were used for quantifying neuron fluorescence (Neurotracker ImageJ macro) and MATLAB17a for data analysis and visualization.
The robotic system was used to screen 14 different solvents at two concentrations (1% and 5%) for their effects on optogenetically-evoked neural responses. Solvent dilutions were prepared in a 96-well plate alternating with buffer control wells (FIG. 8A). A previously established high-throughput imaging device was used to record calcium signals from individual neurons of 20-25 young adult animals (FIG. 8B). Animals co-expressed the red-shifted channelrhodopsin (Chrimson) and the genetically encoded calcium sensor (GCaMP2.2b) in the AWA chemosensory neurons (FIG. 8C), allowing simultaneous optical stimulation and monitoring of neural responses.

ASER chemosensory neuron = conditions: ASER::GCaMP; downshift from base 40 mM NaCl; triplicate pulses
Description: Salt solutions (0-40 mM) were prepared by diluting S. Basal buffer (100 mM NaCl) with an iso-osmotic buffer of 186 mM glycerol.
Either the input stimulus (in, fluorescein for visualization) or buffer can bathe the animals depending on which control channel flows (c1 for input, c2 for buffer). […] Triplicate pulses (10 s) are delivered once per minute at a given concentration, followed by an increase in concentration with a delay of ˜45 s.
Animals expressing GCaMP in the ASER chemosensory neuron, which responds to salt downshifts, were stimulated with triplicate repeat pulses of NaCl, decreasing from a base 40 mM NaCl to a variable level from 40 mM (0 change) to 0 mM (−40 mM change).

AWA chemosensory neurons [2] = test: Automated diacetyl odor dose response, GCaMP calcium imaging; type: in vivo, C. elegans
[3] = 1% v/v solvent in paralysis buffer
[4] = 5% v/v solvent in paralysis buffer

SMILES	effect on peak fluorescent responses to Chrimson-induced activation (AWA chemosensory neurons [1]; [3])	effect on peak fluorescent responses to Chrimson-induced activation (AWA chemosensory neurons [1]; [4])	persistence of suppression after returning to buffer fluid (AWA chemosensory neurons [1])	also measured
CN(C)C=O [DMF]	weaker suppressive effects			
CC(C)=O [acetone]		weaker suppressive effects		
C[S+](C)[O-] [DMSO]	variable and weakly suppressed responses; also recorded: weaker suppressive effects			
CO [methanol]	significantly suppressed	significantly suppressed; also recorded: most significant suppressive effects	transient	
[Cl-].[Na+] [NaCl]				NaCl shift giving a minimal but robust response in ASE (ASER chemosensory neuron): shift from 40 mM to 35 mM
CC(C)O [isopropanol]	significantly suppressed	significantly suppressed; also recorded: most significant suppressive effects	transient	effect on optogenetically-evoked neural responses (AWA chemosensory neurons [1]; solvents at 1% and 5%, concentration not separated): suppression of optogenetic stimulation
CC#N [acetonitrile]		significantly suppressed; also recorded: most significant suppressive effects	transient	
CC(=O)C(C)=O [diacetyl]				diacetyl concentration giving a minimal but robust odor response in AWA (AWA chemosensory neurons [2]; AWA::GCaMP young adults, triplicate odor pulses once per minute): 0.1 µM; odor-evoked neural responses versus concentration (AWA chemosensory neurons [2]; AWA::GCaMP, diacetyl from 0.1 μM to 1 mM): strengthened with increasing odor concentration
CCO [ethanol]		variable and weakly suppressed responses; also recorded: most significant suppressive effects		
